Patent US7887822B2, “Peptides for stimulating an immune response against melanoma” (Health Research, Inc., priority 2005, dated 2011)
Where no end group is shown, it is not given here.

How the values were obtained:
[1] = test system: mAb 763.74; assay: Inhibition by peptides of binding of biotinylated mAb 763.74 to HMW-MAA-bearing Colo38 melanoma cells; conditions: for Inhibition of binding of mAb 763.74 to HMW-MAA-bearing melanoma cells: Colo38 cells, escalating peptide concentrations, FIG. 3; for IC50 for inhibition of mAb 763.74 binding: biotinylated mAb 763.74 incubated with peptide at 4° C. overnight, then Colo38 cells 1 h at 4° C., read-out: Dissociation constant (Kd), molar concentration of the peptide required to cause a 50% inhibition of binding of biotinylated mAb 763.74 to Colo38 cells
Procedure: FIG. 3 is a graphical depiction of dose-dependent inhibition by anti-id mAb MK2-23H3-derived peptide PMK2-23H3 of binding of mAb 763.74 to HMW-MAA-bearing Colo38 melanoma cells. Peptides PHMW.D2.7 (HMW-MAA-derived), PMK2-23H3 (anti-id mAb MK2-23H3-derived), and an irrelevant control peptide Pb2m (β2-microglobulin-derived) at increasing concentrations were incubated with biotinylated mAb 763.74 (0.5 μg/ml) and assayed as described in Example 2. Results of one of three representative experiments are shown.
PMK2-23H3, PMK2-23L1, and PHMW-MAA.D2.7 were synthesized by N.C. Wang, Hospital for Sick Children, Toronto, ON, Canada. A synthetic peptide derived from β2-microglobulin (Pb2m, KNGERIEKVEHS SEQ ID NO:4), used as a negative control, was purchased from University of Georgia Molecular Genetics Instrumentation Facility (Athens, Ga.). mAb 763.74 was purified from ascitic fluid by sequential ammonium sulphate and caprylic acid precipitation (Temponi, et al. (1989) Hybridoma. 8, 85-95). The purity and activity of mAb preparations were assessed by SDS-PAGE and by testing with the corresponding antigen in a binding assay, respectively. Biotinylation was performed using NHS-LC-biotin (Pierce, Rockford, Ill.) according to the manufacturer's instructions.)
Escalating concentrations of peptides were incubated with biotinylated mAb 763.74 ([…]) at 4° C. overnight in U-bottom 96-well plates. The mixture was then incubated with HMW-MAA-bearing melanoma cells Colo38 (10^5/well) for 1 h at 4° C. After three washes with 1% bovine serum albumin in phosphate buffered saline, an optimal amount of horseradish peroxidase-conjugated streptavidin was added. Reactions were then developed and visualized with the TMB substrate system (KPL, Gaithersburg, Md.). Reactions were reported as optical density (O.D.) measured with an ELISA reader. Percent inhibition was calculated by the formula: 100%×(O.D.irrelevant peptide−O.D.test peptide)/O.D.irrelevant peptide. Dissociation constant (Kd) was calculated as the molar concentration of the peptide required to cause a 50% inhibition of binding of biotinylated mAb 763.74 to HMW-MAA-bearing melanoma cells Colo38 (Temponi, et al. (1992) Cancer Res. 52, 2497-2503).

[2] = test system: peptides PMK2-23H3, PHMW.D2.7 and anti-id mAb MK2-23; assay: Immunogenicity in BALB/c mice: reactivity of sera in peptide binding ELISA; type: in vivo; conditions: peptide conjugated to KLH with Freund adjuvant; for Reactivity of sera from immunized mice with HMW-MAA-derived peptide PHMW.D2.7 / Reactivity of sera from immunized mice with peptide PMK2-23H3: s.c. day 0, 21, 42, sera day 7 and 28, ELISA
Procedure: (§1) FIGS. 4A and 4B are graphical depictions of the immunogenicity of peptide PMK2-23H3 in BALB/c mice. Sera harvested before immunization (circle) and on days 7 (square) and 28 (triangle) after immunization from BALB/c mice immunized with anti-id mAb-derived peptide PMK2-23H3 were tested for their reactivity in ELISA with the immunizing peptide (closed symbols, left panel of FIG. 4A) and with HMW-MAA-derived peptide PHMW.D2.7 (open symbols, right panel of FIG. 4A). Sera harvested before immunization (circles) and on day 28 (triangles) were tested in ELISA (left panel in FIG. 4B) with HMW-MAA-transfected M14#5 cells (closed symbols) and with their mock-transfected counterparts (open symbols, left panel in FIG. 4B). Sera harvested on day 28 were tested by FACS analysis (right panel in FIG. 4B, open profiles) with HMW-MAA-transfected M14#5 cells (M14#5/HMW) and with their mock-transfected counterparts (M14#5/neo). Preimmune sera (filled profile) were used as controls.
(§2) Immunizations were given subcutaneously to 8-week-old female BALB/c mice (obtained from Taconic Farms, Germantown, N.Y.) (5 per group) on day 0, 21, and 42. Sera were harvested before immunization and on day 7 and 28. They were tested for reactivity with the immunizing peptide coated on 96-well plates (Temponi, et al. (1989) Hybridoma. 8, 85-95) and with HMW-MAA-bearing melanoma cells in ELISA and fluorescence-activated cell sorting (FACS) analysis using conventional techniques as previously described (Chen, et al. (1991) J. Immunol. 147, 1082-1090).

[3] = test system: HMW-MAA-transfected M14 melanoma cells; assay: Immunogenicity in BALB/c mice: reactivity of sera with HMW-MAA-transfected and mock-transfected M14 melanoma cells in ELISA and FACS; type: in vivo; conditions: sera day 28; ELISA and FACS analysis
Procedure: as §1, with “Sera harvested on day 28 were tested by FACS analysis (right panel in FIG. 4B, open profiles) with HMW-MAA-transfected M14#5 cells (M14#5/HMW) and with their mock-transfected counterparts (M14#5/neo). Preimmune sera (filled profile) were used as controls.” left out
as §2, with “Sera were harvested before immunization and on day 7 and 28.” left out

[4] = Solubility of peptide, as noted for the peptide binding assays; type: physicochemical
Procedure: Peptide PMK2-23H3, which was based on the H3 loop of anti-id mAb MK2-23 encompassing the HMW-MAA-homologous amino acid sequence (FIG. 1) was analyzed for reactivity with the HMW-MAA-specific idiotypic mAb 763.74. […] The peptide SVEYYGSSLMQ (designated as PMK2-23L1), which was derived from the L1 loop of anti-id mAb MK2-23 encompassing the described HMW-MAA-homologous a.a. sequence, was also synthesized.

IC50 for inhibition of mAb 763.74 binding [1] | Solubility [4] | Sequence | Inhibition of binding of mAb 763.74 to HMW-MAA-bearing melanoma cells [1] | Reactivity of sera from immunized mice with HMW-MAA-derived peptide PHMW.D2.7 [2] | Reactivity of sera from immunized mice with peptide PMK2-23H3 [2] | Reactivity of sera from immunized mice with anti-id mAb MK2-23 ([2]; s.c., peptide binding assay) | Reactivity of sera from immunized mice with HMW-MAA-transfected M14 melanoma cells (M14.HMW-MAA) [3] | Reactivity of sera from immunized mice with mock-transfected M14 cells (M14.neo) [3]
0.871 µM |  | ARSNYVGYHVRWYFD [PMK2-23H3, identical to a portion of the H3 loop of anti-id mAb MK2-23] | inhibits the binding | reacted | reacted | reacted | reacted | did not react
0.9 µM |  | IRSGDEVHYHVTAGPRW [PHMW-MAA.D2.7, IRSGDEVHYHV TAGPRW, identical to a region of HMW-MAA with partial homology to the H3 loop of MK2-23] |  |  |  |  |  | 
 |  | KNGERIEKVEHS (human; Beta 2-microglobulin peptide) [Pb2m, reference compound] | no detectable effect | no detectable reactivity | no detectable reactivity |  |  | 
 | low solubility | SVEYYGSSLMQ [PMK2-23L1, SVEYYGSSLMQ] |  |  |  |  |  | 
